According to patent US20220062345A1, “PHARMACEUTICAL COMPOSITION CONTAINING PROTEIN KINASE C ACTIVATOR-TREATED STEM CELLS OR CULTURE THEREOF FOR PREVENTING OR TREATING AUTOIMMUNE DISEASES” (CORESTEM CO.,LTD., priority 2018, published 2022):

Key:
[1] = system: PKC-α and δ; assay: PKC signaling in MSC by western blot; assay type: cell-based, human; details: PMA treated to MSC, 24 hours
Experimental: Cells were lysed in ice using a cell lysis buffer (Cell Signaling Technology, Danvers, Mass., USA). Proteins were obtained by centrifugation at 12,000 rpm for 15 minutes at 4° C. The proteins were quantified using the Bradford reagent, and electrophoresis was performed at 75V with 20 μg of the proteins by using an SDS-polyacrylamide gel. After the SDS-polyacrylamide gel was transferred to a PVDF membrane at 95V for 90 minutes, 5% nonfat dry milk was added to TBS (TTBS) including 0.5% Tween 20 and blocked for 1 hour. After blocking, the membrane was placed in 5% BSA/TTBS including a primary antibody and shaken at 4° C. for one day. […] After washing the membrane with TTBS and reacting the membrane with enhanced chemiluminescence (ECL, Amersham Pharmacia Biotech, Piscataway, N.J., USA), the degree of protein expression was measured using a ChemiDoc™ XRS+ machine (Bio-Rad, CA, USA).
PMA was treated to MSC, and after 24 hours, proteins were obtained, and signaling was analyzed through western blot (A in FIG. 4). A PKC inhibitor (Go6983, 1 ug/mL) was pre-treated to MSC for 1 hour, and after PMA was treated, proteins were obtained after 24 hours, and signaling was analyzed through western blot (B in FIG. 4). […] Then, the level of IgM in the supernatant was measured by ELISA (C in FIG. 4). The mRNA levels of the surface molecules of the PMA-treated MSCs were analyzed via RT-PCR (D in FIG. 4). […]

[2] = system: MSC; assay: Surface molecules of PMA-treated MSC by RT-PCR and FACS; assay type: cell-based, human; details: PMA treated to MSC, RT-PCR
Experimental: (§1) The expression levels of mRNA for FasL, PD-L1, PD-L2, ICAM1, VCAM1, β-actin, IFN-γ, TNF-α, IL-12, COX-2, iNOS, IDO, TGF-β, CCL2, CCL3, CXCL10, and CXCL12 were analyzed by quantitative real-time PCR (qPCR). The relative mRNA amount of each sample was calculated based on a threshold cycle (Ct) compared to the threshold cycle (Ct) of β-actin, which is a housekeeping gene.
PMA was treated to MSC, and after 24 hours, proteins were obtained, and signaling was analyzed through western blot (A in FIG. 4). A PKC inhibitor (Go6983, 1 ug/mL) was pre-treated to MSC for 1 hour, and after PMA was treated, proteins were obtained after 24 hours, and signaling was analyzed through western blot (B in FIG. 4). After MSC was pretreated with the PKC inhibitor (Go6983, 1 ug/mL) for 1 hour and PMA was treated, B cells (1×10^5 cells/well) that were isolated from PBMC and PMA-treated MSCs (1×10^3 cells/well) were co-cultured with ODN for 72 hours. Then, the level of IgM in the supernatant was measured by ELISA (C in FIG. 4). The mRNA levels of the surface molecules of the PMA-treated MSCs were analyzed via RT-PCR (D in FIG. 4). The expressions of PD-L1 of the PMA-treated MSC and PD1 of the B cells were analyzed through FACS (E in FIG. 4). After treating the FasL blocking Ab (10 ug/mL) (F) and the PD-L1 blocking Ab (10 ug/mL) (G) to MSCs and adding PMA, MSCs and B cells were cultured with ODN for 72 hours, and then, the IgM level in the supernatant was measured by ELISA. The PMA-treated MSCs were treated with siRNA to confirm […] at the mRNA level via RT-PCR. After the PMA-treated MSCs, in which PD-L1 was knocked down, and B cells were cultured with ODN for 72 hours, the IgM level in the supernatant was measured by ELISA (H in FIG. 4). PMA was treated to the MSCs, and after 24 hours, the total RNA was obtained, and soluble factors were analyzed via RT-PCR (I in FIG. 4).

[3] = system: MSC; assay: Chemokines of MSC by RT-PCR and ELISA; assay type: cell-based, human; details: MSC treated with PMA; mRNA (RT-PCR) and protein (ELISA)
Experimental: Cells were treated with Trypsin-EDTA (Gibco) at […] at a time point when the confluency of 70% to 80% was reached, followed by culturing under a condition of 5% CO2 and 37° C. After 24 hours of material treatment, the cells were recovered, and the total RNA was isolated from the cells using the TRIZOL reagent (invitrogen, MD, USA), and the total RNA was quantified by absorbance measurement at 260 nm.
A total RNA concentration of 0.3 μg was used, and it was synthesized at 42° C. for 1 hour and at 95° C. for 5 minutes. Polymerase chain reaction was performed using 3 μL of synthesized cDNA and 10 pM of a primer. […]
as §1
The chemokines of MSC were analyzed by RT-PCR (A in FIG. 2) and ELISA (B in FIG. 2) at mRNA and protein levels, respectively. […] The migration of B cells with respect to MSC was measured using a transwell, MSCs were seeded in the lower well, and B cells were seeded in the upper well. […]

[4] = system: B cells; assay: Co-culture of B cells isolated from PBMC with hMSC and ODN, IgM in supernatant by ELISA; assay type: cell-based; details: screening of 20 types of chemicals treated to human MSC
Experimental: Human mesenchymal stern cells (MSC) were obtained from hone marrow (BM) cells of human tibiae and femurs. BM cells were cultured in α-MEM medium including 10% fetal bovine serum (FBS), 2 mM L-glutamine, and penicillin/streptomycin under a condition of 37° C. and 5% CO2. Non-adherent cells were removed on day 1, and adhered cells were cultured with medium replenishment every 3 days and used between day 17 and day 20.
As substances used for the pretreatment condition for hMSC, PMA (10 ng/mL, 24-hour treatment, Sigma), I3A (10 μg/mL, 24-hour treatment, Sigma), and IFN-γ (10 ng/mL, 7-day treatment, Sigma) were used.
IFN-γ measurement'as performed according to the test method provided by R&D (#DY285-05), and for IgM, the IgM ELISA kit (eBioscience, Vienna, Austria) was used for measurement. […] Finally, the value was measured at 450 nm to 570 nm.
After B cells (1×10^5 cells/well) isolated from peripheral blood mononuclear cells (PBMC) and PMA-treated hMSC (1×10^3 cells/well) were co-cultured for 72 hours with CpG oligodeoxynucleotides (ODN, 5 μg/mL), the level of IgM in the supernatant was measured by ELISA (A in FIG. 1). T cells (1×10^5 cells/well) isolated from PBMC and PMA-treated hMSCs×10^3 cells/well) were co-cultured for 72 hours with phytohemagglutinin (PHA, 5 ug/mL), and the level of IFN-γ in the supernatant was measured by ELISA (B in FIG. 1). […]

CCCCCCCCCCCCCC(=O)O[C@@H]1[C@@H](C)[C@@]2(O)[C@@H](C=C(CO)C[C@]3(O)C(=O)C(C)=C[C@@H]23)[C@@H]2C(C)(C)[C@]12OC(C)=O [PMA, phorbol myristate acetate]
PKC-α and δ in the cytoplasm of MSC [1]: transferred to the cell membrane
phosphorylation of ERK in MSC [1]: increased
FasL expression in MSC [2]: expressed
PD-L2 expression in MSC [2]: expressed
PD-L1 expression in MSC ([2]; FACS): expressed
expression of CXCL10 in MSC [3]: increased
human B cell function [4]: inhibits
